Experimental data as given in paper PMC8400968, “Design, Synthesis, Biological Evaluation, and Computational Studies of Novel Tri-Aryl Imidazole-Benzene Sulfonamide Hybrids as Promising Selective Carbonic Anhydrase IX and XII Inhibitors” (Molecules, 2021).
Several values for one entry are separate records, joined by “and”; a condition that tells them apart may be missing. Identical values can stand only once. Like-named read-outs stand apart in the source and are kept apart here.

Columns and labels:
[1] = target: T1, hCA I (Homo sapiens, UniProt P00915); experiment: stopped-flow CO2 hydrase assay, hCA I; assay type: biochemical
T1 construct: made in house
T1 sequence (P00915 whole entry): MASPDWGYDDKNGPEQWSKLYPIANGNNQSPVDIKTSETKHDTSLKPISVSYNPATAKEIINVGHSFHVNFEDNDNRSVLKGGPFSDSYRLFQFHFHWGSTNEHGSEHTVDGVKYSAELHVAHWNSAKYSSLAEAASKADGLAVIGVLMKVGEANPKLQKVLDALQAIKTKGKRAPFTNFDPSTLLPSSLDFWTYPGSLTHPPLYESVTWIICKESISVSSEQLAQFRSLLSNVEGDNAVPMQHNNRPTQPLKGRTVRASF
Protocol: (§1) Newly synthesized hybrids 5a–n were tested for their inhibitory activity against four physiologically and pharmacologically CA isoforms, namely cytosolic hCA I and II, and tumor-associated isoforms hCA IX and XII, using a CO2 hydrase stop-flow assay. Acetazolamide (AAZ), clinically used sulphonamide, was used as the standard drug. […] The ability of imidazoles 5a–n toward inhibition of hCA I, II (cytosolic) as well as hCA IX and XII (transmembrane, tumor-associated isoforms) using stopped-flow CO2 hydrase assay was evaluated. See Appendix A.
(§2) The enzymes are recombinant proteins prepared in our lab. […] The uncatalyzed rates were determined in the same manner and subtracted from the total observed rates. Stock solutions of inhibitor (0.1 mM) were prepared in distilled-deionized water and dilutions up to 0.01 nM were done thereafter with the assay buffer. Inhibitor and enzyme solutions were preincubated together for 15 min at room temperature prior to assay, in order to allow for the formation of the E-I complex. The inhibition constants were obtained by non-linear least-squares methods using PRISM 3 and the Cheng-Prusoff equation, and represent the mean from at least three different determinations.

[2] = tested on: four human cancer cell lines (Panc-1, MCF-7, HT-29, A-549); experiment: Antiproliferative activity, MTT assay, average of the four cell lines; assay type: cell-based; settings: for IC50: average of A-549, MCF-7, Panc-1, HT-29
Protocol: (§3) The antiproliferative activity of 5b, 5d, 5e, 5g, 5j and 5n against four human cancer cell lines including pancreatic cancer cell line (Panc-1), breast cancer cell line (MCF-7), colon cancer cell line (HT-29) and epithelial cancer cell line (A-549) using MTT assay and doxorubicin was applied as the reference compound [22, 23]. Graph Pad Prism software (Graph Pad Software, San Diego, CA, USA) was used to calculate the median inhibition concentration (IC50) and results are recorded in Table 2.
(§4) The antiproliferative activity of 5b, 5d, 5e, 5g, 5j and 5n against four human cancer cell lines including pancreatic cancer cell line (Panc-1), breast cancer cell line (MCF-7), colon cancer cell line (HT-29) and epithelial cancer cell line (A-549) using MTT assay and doxorubicin was applied as the reference compound [22, 23]. See Appendix A.
(§5) To explore the antiproliferative potential of compounds MTT assay was performed according to previously reported procedure using different cell lines To explore the antiproliferative potential of compounds propidium iodide fluorescence assay was performed using different cell lines. To calculate the total nuclear DNA, a fluorescent dye (propidium iodide, PI) is used which can attach to the DNA, thus offering a quick and precise technique. PI cannot pass through the cell membrane and its signal intensity can be considered as directly proportional to quantity of cellular DNA. Cells whose cell membranes are damaged or have changed permeability are counted as dead ones. The assay was performed by seeding the cells of different cell lines at a density of 3000–7500 cells/well (in 200 µL medium) in culture plates followed by incubation for 24 h at 37 °C in humidified 5% CO2/95% air atmospheric conditions. The medium was removed; the compounds were added to the plates at 10 µM concentrations (in 0.1% DMSO) in triplicates, followed by incubation for 48 h. DMSO (0.1%) was used as control. After incubation, medium was removed followed by the addition of PI (25 µL, 50µg/mL in water/medium) to each well of the plates. At −80 °C, the plates were allowed to freeze for 24 h, followed by thawing at 25 °C. A fluorometer (Polar-Star BMG Tech, Offenburg, Germany) was used to record the readings at excitation and emission wavelengths of 530 and 620 nm for each well. The percentage cytotoxicity of compounds was calculated using the following formula: %Cytotoxicity=(Ac−Atc)/Ac×100 where Atc = Absorbance of treated cells and Ac = Absorbance of control. Erlotinib was used as positive control in the assay.

[3] = tested on: epithelial cancer cell line (A-549); experiment: Antiproliferative activity, MTT assay, A-549; assay type: cell-based; settings: Homo sapiens, A549; A-549, MTT; read-out: Antiproliferative Activity IC50 ± SEM A-549
Protocol: as §3, §4, §5

[4] = tested on: pancreatic cancer cell line (Panc-1); experiment: Antiproliferative activity, MTT assay, Panc-1; assay type: cell-based; settings: Homo sapiens; Panc-1, MTT; read-out: Antiproliferative Activity IC50 ± SEM Panc-1
Protocol: as §3, §4, §5

[5] = target: T2, hCA II (Homo sapiens, UniProt P00918); experiment: stopped-flow CO2 hydrase assay, hCA II; assay type: biochemical
T2 construct: made in house
Protocol: as §1, §2

[6] = target: T3, hCA IX (Homo sapiens, UniProt Q16790); experiment: stopped-flow CO2 hydrase assay, hCA IX; assay type: biochemical; settings: for IC50: quoted in docking discussion, read-out: IC50 CA-IX (in vitro inhibitory activity quoted in docking study); for Selectivity Ratio hCA XII/ hCA IX: selectivity for hCA IX over hCA XII; for Ki: stopped-flow CO2 hydrase assay
T3 construct: made in house
Protocol: as §1, §2

[7] = target: T4, hCA XII (Homo sapiens, UniProt O43570); experiment: stopped-flow CO2 hydrase assay, hCA XII; assay type: biochemical
T4 construct: made in house
T4 sequence (O43570 25-354): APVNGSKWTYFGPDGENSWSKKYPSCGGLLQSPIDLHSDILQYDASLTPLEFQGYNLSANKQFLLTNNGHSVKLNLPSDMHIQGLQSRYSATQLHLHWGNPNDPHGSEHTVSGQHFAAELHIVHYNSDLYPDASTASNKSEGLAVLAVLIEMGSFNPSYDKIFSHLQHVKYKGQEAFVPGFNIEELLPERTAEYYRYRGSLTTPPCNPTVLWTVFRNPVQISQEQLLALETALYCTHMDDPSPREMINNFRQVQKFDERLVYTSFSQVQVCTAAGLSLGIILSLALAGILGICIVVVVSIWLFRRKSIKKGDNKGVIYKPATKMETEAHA
Protocol: Newly synthesized hybrids 5a–n were tested for their inhibitory activity against four physiologically and pharmacologically CA isoforms, namely cytosolic hCA I and II, and tumor-associated isoforms hCA IX and XII, using a CO2 hydrase stop-flow assay. Acetazolamide (AAZ), clinically used sulphonamide, was used as the standard drug. […]. The ortho substitution in the aryl moiety appears to correlate with higher inhibitory effects against both hCA IX and XII. […] […]. The ability of imidazoles 5a–n toward inhibition of hCA I, II (cytosolic) as well as hCA IX and XII (transmembrane, tumor-associated isoforms) using stopped-flow CO2 hydrase assay was evaluated. See Appendix A.
The carbonic anhydrase catalyzed CO2 hydration actions for all new compounds herein reported have were assayed utilizing an instrument of Applied Photophysics stopped-flow. The enzymes are recombinant proteins prepared in our lab. […]. The uncatalyzed rates were determined in the same manner and subtracted from the total observed rates. Stock solutions of inhibitor (0.1 mM) were prepared in distilled-deionized water and dilutions up to 0.01 nM were done thereafter with the assay buffer. Inhibitor and enzyme solutions were preincubated together for 15 min at room temperature prior to assay, in order to allow for the formation of the E-I complex. The inhibition constants were obtained by non-linear least-squares methods using PRISM 3 and the Cheng-Prusoff equation, and represent the mean from at least three different determinations.

[8] = Cell viability assay (MTT); assay type: cell-based; settings: human, MCF-10A mammary gland epithelial cells, MCF-10A cells, incubated 4 days
Protocol: Cell viability assay was carried out using human mammary gland epithelial cell line (MCF-10A). MCF-10A cells were incubated with compounds 5b, 5d, 5e, 5g, 5j and 5n for 4 days and MTT assay was used to determine the viability of cells. See Appendix A.
MTT assay was carried out to study the effect of compounds on mammary epithelial cells (MCF-10A). The medium in which cells were propagated contained Dulbecco’s modified Eagle’s medium (DMEM)/Ham’s F-12 medium (1:1) supplemented with epidermal growth factor (20 ng/mL), hydrocortisone (500 ng/mL), insulin (10 μg/mL), 2 mM glutamine and 10% fetal calf serum. After every 2–3 days, the cells were passaged using trypsin ethylenediamine tetra acetic acid (EDTA). The cells were seeded at a density of 10^4 cells mL^−1 in flat-bottomed culture plates containing 96 wells each. After 24 h, medium was removed from the plates and the compounds in (in 0.1% DMSO) were added (in 200 μL medium to yield a final concentration of 0.1% v/v) to the wells of plates. A single compound was designated with four wells followed by incubation of plates for 96 h at 37 °C. After incubation, medium was removed completely from the plates followed by addition of MTT (0.4 mg/mL in medium) to each well and subsequent incubation of plates for 3 h. MTT (along with the medium) was removed and DMSO (150 μL) was added to each well of the culture plates, followed by vortexing and subsequent measurement of absorbance (at 540 nm) using microplate reader. The data are shown as percentage inhibition of proliferation in comparison with controls containing 0.1% DMSO.

[9] = tested on: colon cancer cell line (HT-29); experiment: Antiproliferative activity, MTT assay, HT-29; assay type: cell-based; settings: Homo sapiens; HT-29, MTT; read-out: Antiproliferative Activity IC50 ± SEM HT-29
Protocol: as §3, §4, §5

[10] = tested on: breast cancer cell line (MCF-7); experiment: Antiproliferative activity, MTT assay, MCF-7; assay type: cell-based; settings: Homo sapiens, MCF7; MCF-7, MTT; read-out: Antiproliferative Activity IC50 ± SEM MCF-7
Protocol: as §3, §4, §5

| SMILES | Ki [1] [µM] | melting point [°C] | IC50 [2] [µM] | GI50 ([2]; mean of four cell lines, read-out: mean GI50 against the four cell lines) [µM] | IC50 [3] [µM] | IC50 [4] [µM] | Ki [5] [µM] | IC50 [6] [µM] | Selectivity Ratio hCA XII/ hCA IX [6] | Ki [6] | Ki [7] [µM] | viability at 96 h [8] [%] | IC50 [9] [µM] | IC50 [10] [µM] | Ki ([1]; stopped-flow CO2 hydrase assay, read-out: Ki hCA I) [µM] | GI50 ([2]; four cancer cell lines, read-out: GI50) [µM] |
| --- | --- | --- | --- | --- | --- | --- | --- | --- | --- | --- | --- | --- | --- | --- | --- | --- |
| NS(=O)(=O)c1ccc(-n2c(-c3c(Cl)cccc3Cl)nc(-c3ccccc3)c2-c2ccccc2)cc1 [Compound 5d, 4-(2-(2,6-Dichlorophenyl)-4,5-diphenyl-1H-imidazol-1-yl)benzene sulfonamide] | > 100 | 214 to 216 | 3.5 | 3.5 | 3.1 ± 0.6 | 3.8 ± 0.3 | > 100 | 0.72 | 7.00 | 0.72 µM and 0.7 µM | 4.9 | 87 | 3.1 ± 0.4 | 3.9 ± 0.4 |  |  |
| COc1ccccc1-c1nc(-c2ccccc2)c(-c2ccccc2)n1-c1ccc(S(N)(=O)=O)cc1 [Compound 5g, 4-(2-(2-Methoxyphenyl)-4,5-diphenyl-1H-imidazol-1-yl)benzene sulfonamide] |  |  | 2.3 |  | 2.4 ± 0.5 | 2.2 ± 0.4 | > 100 | 0.32 | 12.00 | 0.32 µM and 0.3 µM | 3.7 | 90 | 2.4 ± 0.4 | 2.1 ± 0.2 | > 100 | 2.3 |
| NS(=O)(=O)c1ccc(-n2c(-c3ccccc3[N+](=O)[O-])nc(-c3ccccc3)c2-c2ccccc2)cc1 [Compound 5j, 4-(2-(2-Nitrophenyl)-4,5-diphenyl-1H-imidazol-1-yl)benzene sulfonamide] | > 100 | 280 to 282 | 4.4 |  | 4.6 ± 0.6 | 4.6 ± 0.9 | > 100 |  | 5.60 | 1.1 µM | 6.2 | 88 | 4.8 ± 0.4 | 3.6 ± 0.2 |  |  |
| NS(=O)(=O)c1ccc(-n2c(-c3cccs3)nc(-c3ccccc3)c2-c2ccccc2)cc1 [Compound 5n, 4-(4,5-Diphenyl-2-(thiophen-2-yl)-1H-imidazol-1-yl)benzene sulfonamide] | > 100 | 290 to 292 | 4.7 |  | 4.7 ± 0.6 | 4.8 ± 0.3 | > 100 |  | 5.00 | 1.3 µM | 6.4 | 90 | 4.8 ± 0.2 | 4.6 ± 0.6 |  |  |
